Results on one compound are retold here after patent EP0319906A2, “Novel quinoline derivatives, processes for preparation thereof and antibacterial agent containing them” (Dainippon Pharmaceutical Co., Ltd., priority 1987, dated 1989).

What all share (format): cell-based
One assay relates to E. coli NIHJ JC-2. Description: In vitro antibacterial activity, twofold agar-dilution MIC. The conditions noted are these: Escherichia coli, NIHJJC2, 20 h, read-out: minimum inhibitory concentrations (MIC). The method, then: (§1) The figures in the table show minimum inhibitory concentrations (MIC) (µg/ml), calculated for free base. […] One loopful of an overnight culture of test organisms in Mueller-Hinton broth was inoculated onto 10 ml drug- containing agar layers in petri dishes. Bacterial inocula contained approximately 10⁶ colonyl-forming units. […] The MIC was defined as the lowest drug concentration which prevented visible bacterial growth.

For another assay, the system named is E. coli P-5101. The description is as above. The following applies: Escherichia coli, P5101, 20 h, read-out: minimum inhibitory concentrations (MIC). The method, then:
as §1

A further assay has as its system P. aeruginosa 12. The assay is described as above. The following applies: Pseudomonas aeruginosa, 12, 20 h, read-out: minimum inhibitory concentrations (MIC). The method, then: as §1
A further assay has as its system S. aureus 209 JC-1. The assay is described as above. The following applies: Staphylococcus aureus, 209JC1, 20 h, read-out: minimum inhibitory concentrations (MIC). How it is done: as §1
The next assay has as its system S. aureus No. 80. The description is as above. The following applies: Staphylococcus aureus, NO.80, 20 h, read-out: minimum inhibitory concentrations (MIC). The method, then: as §1
The subject of another assay is S. aureus Terajima. The assay is described as above. The conditions noted are these: Staphylococcus aureus, 20 h, read-out: minimum inhibitory concentrations (MIC). How it is done: as §1
A further assay relates to S. epidermidis No. 8. Described as above. The conditions noted are these: Staphylococcus epidermidis, NO.8, 20 h, read-out: minimum inhibitory concentrations (MIC). How it is done:
as §1

In another assay the test system is S. marcescens S-9. The description is as above. The following applies: Serratia marcescens, S9, 20 h, read-out: minimum inhibitory concentrations (MIC). How it is done:
as §1

Another assay concerns S. pyogenes A65. Described as above. The following applies: Streptococcus pyogenes, A65, 20 h, read-out: minimum inhibitory concentrations (MIC). The method, then:
as §1

The test system of assay [1] is C. Trachomatics G/ur 1242. Description: Antichlamydia activity, MIC in McCoy cells (inclusion bodies). The conditions noted are these: read-out: minimum inhibitory concentrations (MIC). The method, then: (§2) The figures in the table show minimum inhibitory concentrations (MIC), (μg/ml), calculated for free base. Minimum inhibitory concentrations (MIC) were determined as follows. […] The cells were trypsinized and suspended in the same culture medium at a cell concentration of 1-2 x 10^5 cells/ml. One ml of the cell suspension was pipetted into flat-bottomed plastic tubes (14 mm in diameter) containing a cover slip (12 mm in diameter). The tubes were incubated in 5 % CO2-air at 36 °C for 20 hours. One-half ml of a chlamydial suspension (ca. 1-4 x 103 inclusion body forming units) was added into each tube, which was then centrifuged at 1500 x g for 60 minutes. The tubes were incubated for 1 hour at 36 °C. […] After further incubation at 36 °C for 40-48 hours, the cells on the cover glasses were stained with the Giemsa's solution. […] The MIC was defined as the lowest drug concentration where there were no inclusion bodies in all the cells on the cover slip.

Assay [2] has as its system C. Trachomatics G/ur 1317. The description is as above. The conditions noted are these: read-out: minimum inhibitory concentrations (MIC). How it is done:
as §2

In assay [3] the test system is C. Trachomatics G/ur 1448. The assay is described as above. The conditions noted are these: read-out: minimum inhibitory concentrations (MIC). The method, then: as §2
Another assay concerns C. Trachomatics G/ur 931. The description is as above. The following applies: read-out: minimum inhibitory concentrations (MIC). The method, then:
as §2

The next assay concerns A. laidlawii PG-8. Description: Antimycoplasma activity, twofold agar dilution MIC. The following applies: Acholeplasma laidlawii, PG8, 48 h, read-out: minimum inhibitory concentrations (MIC). The method, then:
(§3) The figures in the table show minimum inhibitory concentrations (MIC), (μg/ml), calculated for free base. Minimum inhibitory concentrations (MIC) were determined by the twofold agar dilution method. The media used were Chanock broth and agar [PPLD broth and agar (Difco) supplemented with 20 % horse serum and 10 % fresh yeast extract]. A 2-3 day broth culture of organisms was diluted with Chanock broth to a cell density of about 10^6 cells/ml. One loopful (about […]) of the organism dilution was spotted onto 10-ml drug containing Chanock agar in petri dishes using a multiple inoculator ([…] International). […] Incubation was performed anaerobically using the […] anaerobic system (BBL) for M. buccale, M. fermentans, M. hominis, M. orale and M. salivarium, and aerobically for other Mycoplasma spp. The MIC was defined as the lowest compound concentration at which no growth of organism was detected.
(In general: In agar dilution the substance is mixed into plates at graded concentrations.)

For a further assay, the system named is M. arginini G-230. Nature of the assay: Antimycoplasma activity, twofold agar dilution MIC. The following applies: 48 h, read-out: minimum inhibitory concentrations (MIC). How it is done: as §3
Another assay relates to M. buccale CH-20249. Description: Antimycoplasma activity, twofold agar dilution MIC. The conditions noted are these: 48 h, read-out: minimum inhibitory concentrations (MIC). How it is done:
as §3

For another assay, the system named is M. fermentans PG-18. Description: Antimycoplasma activity, twofold agar dilution MIC. The conditions noted are these: Mycoplasmopsis fermentans, PG18, 48 h, read-out: minimum inhibitory concentrations (MIC). How it is done: as §3
The subject of a further assay is M. hominis PG-21. Nature of the assay: Antimycoplasma activity, twofold agar dilution MIC. The following applies: Metamycoplasma hominis, PG21, 48 h, read-out: minimum inhibitory concentrations (MIC). The method, then:
as §3

A further assay concerns M. hyorhinis BST-7. Description: Antimycoplasma activity, twofold agar dilution MIC. The conditions noted are these: Mesomycoplasma hyorhinis, BST7, 48 h, read-out: minimum inhibitory concentrations (MIC). How it is done:
as §3

Another assay relates to M. orale CH-19299. Description: Antimycoplasma activity, twofold agar dilution MIC. The following applies: po, 48 h, read-out: minimum inhibitory concentrations (MIC). How it is done: as §3
A further assay concerns M. pneumoniae Mac. Description: Antimycoplasma activity, twofold agar dilution MIC. The following applies: Mycoplasmoides pneumoniae, 168 h, read-out: minimum inhibitory concentrations (MIC). How it is done: as §3
A further assay concerns M. salivarium PG-20. Description: Antimycoplasma activity, twofold agar dilution MIC. The conditions noted are these: 48 h, read-out: minimum inhibitory concentrations (MIC). How it is done:
as §3

Molecules are shown by their SMILES.

Consider `Cl.O=C(O)c1cn(C2CC2)c2cc(N3CCNCC3)c(F)cc2c1=O` [Compound A, 1-cyclopropyl-6-fluoro-7-(1-piperazinyl)-1,4-dihydro-4-oxoquinoline-3-carboxylic acid hydrochloride], for which the MIC came to 0.0063 µg/mL in the assay on E. coli NIHJ JC-2; 0.0063 µg/mL in the assay with E. coli P-5101; 0.1 µg/mL with P. aeruginosa 12; 0.1 µg/mL with S. aureus 209 JC-1; 0.39 µg/mL in the assay on S. aureus No. 80; 0.1 µg/mL in the assay on S. aureus Terajima. Further, the MIC in the assay with S. epidermidis No. 8 came to 0.1 µg/mL; in the assay with S. marcescens S-9, 0.05 µg/mL; in the assay on S. pyogenes A65, 0.2 µg/mL; in assay [1], 1 µg/mL; in [2] it was 2 µg/mL; in [3] it was 1 µg/mL. Also, the MIC was 1 µg/mL in the assay on C. Trachomatics G/ur 931; 0.39 µg/mL with A. laidlawii PG-8; 0.39 µg/mL with M. arginini G-230; 0.39 µg/mL with M. buccale CH-20249; 0.2 µg/mL in the assay on M. fermentans PG-18; 1.56 µg/mL in the assay on M. hominis PG-21. The MIC was determined as 0.39 µg/mL in the assay with M. hyorhinis BST-7, 1.56 µg/mL with M. orale CH-19299, 0.78 µg/mL in the assay with M. pneumoniae Mac and 3.13 µg/mL in the assay with M. salivarium PG-20.
